What was measured:
CSF1R = CSF1R (Homo sapiens, UniProt P07333); assay: binding affinity towards CSF1R
NASH mice = assay: in vivo efficacy in STAM mouse model of non-alcoholic steatohepatitis; design: species or system C57BL/6 mice
Experimental: Pathogen-free 14 day-pregnant C57BL/6 mice were obtained from Japan SLC, Inc.(Japan); NASH was established in male mice by a single subcutaneous injection of 200 μg streptozotocin (STZ, Sigma, USA) 2 days after birth and feeding with a high fat diet (CLEA Japan Inc., Japan) ad libitum after 4 weeks of age (day 28 ± 2). NASH mice were randomized into 8 groups of 8 mice and 2 groups of 4 mice at 6 weeks of age (day 42 ± 2) the day before the start of treatment based on their body weight. Littermate control mice without STZ priming (n=8) were fed with normal diet ad libitum and set up for control purpose (see below for details on grouping). […] Samples would not be collected from euthanized animals. Individual body weight was measured daily during the treatment period. […] Four NASH mice were intraperitoneally administered vehicle supplemented with D-Cy5 at a dose of 50 mg/kg single shot at 6 weeks of age; • Group 11 (D-Cy5-9 wks): Four NASH mice were intraperitoneally administered vehicle supplemented with D-Cy5 at a dose of 50 mg/kg single shot at 9 weeks of age. Mice in group 10 and 11 were sacrificed at 6 and 9 weeks of age 48 hours after the administration. Mice in group 1 - 9 were sacrificed at 9 weeks of age for the following assay, group 10 and 11 were sacrificed at 6 and 9 weeks of age for the following assays. Individual liver weight were measured and liver-to-body weight ratio were calculated. Non-fasting serum ALT levels were quantified by FUJI DRI CHEM (Fujifilm, Japan). Liver triglyceride levels were quantified by Triglyceride E-test kit (FUJIFUILM Wako Pure Chemical Corporation, Japan). HE staining and estimation of NAFLD Activity score was carried out using routine methods. Sirius-red staining and estimation of the percentage of fibrosis area was also calculated. After completion of the in-life portion of the study, the following samples were collected for further analyses or shipping. […] Dissect the animal and collect the tissue samples (right and left kidneys, liver) in sequential order. Sample thickness was less than approximately 5 mm to ensure proper fixation, with a flat surface across the area of interest. Put the samples into 4% NBF for fixation immediately. Fix the samples in 4% NBF overnight at room temperature.

[1] = water solubility of dendrimer conjugates
[2] = in vitro drug release under plasma (pH7.4, PBS) and intracellular conditions (pH5.5, esterase); format: in vitro ADME; settings: intracellular conditions (pH5.5, esterase), 18 days
Experimental: The drug release profile of both the conjugates was evaluated under plasma (pH7.4, PBS) and intracellular conditions (pH5.5, esterase).

[3] = target: T1, human angiotensin II AT1 receptor (Homo sapiens, UniProt P30556); assay: human angiotensin II AT1 receptor (antagonist radioligand) binding assay; settings: [125I][Sar1-Ile8] angiotensin-II radioligand, cell membrane homogenates
T1 sequence (P30556 1-359): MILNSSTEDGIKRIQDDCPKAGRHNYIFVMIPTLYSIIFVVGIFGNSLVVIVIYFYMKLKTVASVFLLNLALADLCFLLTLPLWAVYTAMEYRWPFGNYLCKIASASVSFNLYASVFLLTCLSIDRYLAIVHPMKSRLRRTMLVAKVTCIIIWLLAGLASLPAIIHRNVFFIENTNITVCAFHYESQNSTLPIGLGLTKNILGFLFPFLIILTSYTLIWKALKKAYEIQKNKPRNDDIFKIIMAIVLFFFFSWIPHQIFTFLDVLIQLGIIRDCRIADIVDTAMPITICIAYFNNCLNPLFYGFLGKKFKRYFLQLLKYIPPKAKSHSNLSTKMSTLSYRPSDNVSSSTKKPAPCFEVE
Experimental: Cell membrane homogenates (8 µg protein) are incubated for 120 min at 37° C. with 0.05 nM [125I][Sar1-Ile8] angiotensin-II in the absence or presence of the test compounds in a buffer containing 50 mM Tris-HCl (pH 7.4), 5 mM MgCl2, 1 mM EDTA and 0.1% BSA. Nonspecific binding is determined in the presence of 10 µM angiotensin II. Following incubation, the samples solution are filtered rapidly under vacuum through glass fiber filters (GF/B, Packard) presoaked with 0.3% PEI and rinsed several times with ice-cold 50 mM Tris-HCl using a 96-sample cell harvester (Unifilter, Packard). The filters are dried then counted for radioactivity in a scintillation counter (Topcount, Packard) using a scintillation cocktail (Microscint 0, Packard).
The results are expressed as a percent inhibition of the control radioligand specific binding. Saralasin is used as the standard reference compound, which is tested in each experiment at several concentrations to obtain a competition curve from which its IC50 is calculated.

[4] = NASH mice, significantly compared to free OCA and vehicle control (p < 0.05, n=8)

Chain of CSF1R (P07333 20-972, species assumed): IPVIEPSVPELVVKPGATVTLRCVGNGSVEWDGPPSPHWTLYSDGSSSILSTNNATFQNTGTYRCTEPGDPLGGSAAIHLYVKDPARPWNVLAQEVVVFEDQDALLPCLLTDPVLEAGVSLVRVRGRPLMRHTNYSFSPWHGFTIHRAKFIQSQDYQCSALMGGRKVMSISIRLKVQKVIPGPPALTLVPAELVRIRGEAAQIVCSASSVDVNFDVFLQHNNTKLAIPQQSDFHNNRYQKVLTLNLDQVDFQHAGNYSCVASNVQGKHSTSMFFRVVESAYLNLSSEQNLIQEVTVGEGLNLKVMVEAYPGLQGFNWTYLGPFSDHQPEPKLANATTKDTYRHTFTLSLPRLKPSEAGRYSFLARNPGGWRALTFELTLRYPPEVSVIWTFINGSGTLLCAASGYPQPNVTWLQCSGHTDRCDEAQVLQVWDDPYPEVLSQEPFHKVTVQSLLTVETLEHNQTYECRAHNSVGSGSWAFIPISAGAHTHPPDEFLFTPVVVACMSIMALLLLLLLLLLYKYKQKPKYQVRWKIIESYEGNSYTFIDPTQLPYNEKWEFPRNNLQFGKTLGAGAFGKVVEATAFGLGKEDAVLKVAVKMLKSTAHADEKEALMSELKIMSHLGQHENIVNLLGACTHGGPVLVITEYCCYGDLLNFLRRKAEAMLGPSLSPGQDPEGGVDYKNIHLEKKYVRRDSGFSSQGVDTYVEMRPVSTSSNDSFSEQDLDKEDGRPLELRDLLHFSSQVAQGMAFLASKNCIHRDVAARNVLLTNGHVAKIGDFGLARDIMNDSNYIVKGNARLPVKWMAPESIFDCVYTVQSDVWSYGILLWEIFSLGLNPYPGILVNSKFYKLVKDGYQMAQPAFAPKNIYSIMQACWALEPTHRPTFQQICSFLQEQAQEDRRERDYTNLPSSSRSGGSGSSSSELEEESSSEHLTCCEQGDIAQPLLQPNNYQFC

## Cc1ccc(NC(=O)c2ccc(CN3CCN(CCOCCOCCOCCN=[N+]=[N-])CC3)c(C(F)(F)F)c2)cc1NC(=O)c1cccc(-c2cnn(C)c2)c1 [CSF1R-E analogue 1]
CSF1R
  Kd: ~13 nM

## CCCc1nc2c(C)cc(-c3nc4ccccc4n3C)cc2n1Cc1ccc(-c2ccccc2C(=O)O)cc1 [Telmisartan, reference compound]
NASH mice; NASH mice at nine weeks of age, compared to vehicle-treated NASH mice
  liver weight: reduce liver weight

## dendrimer-GalNAc (4-5)-telmisartan amide (6-7) [D-Tel]
[1]
  water solubility: 60 to 70 mg/mL
[2]
  drug release: less than 10%

## dendrimer-GalNAc(4-5)-Obeticholic acid conjugate (6-7) [D-OCA]
NASH mice; NASH mice
  liver function (biochemical analysis): improved liver function
NASH mice; [4]
  NAFLD score: decreases
  hepatocyte ballooning: decreases
  liver fibrosis: decreases
NASH mice; high dose D-OCA (315 mg/kg i.p. every other day), compared to free OCA group
  fibrosis score: improved reduction
NASH mice; low dose D-OCA (63 mg/kg i.p. every other day)
  stenosis score: significant reduction

## dendrimer-triantennary GalNAc(4-5)-telmisartan (7-8) [D-TelB]
[2]
  drug release: 94%

## telmisartan-PEG3-amide azide [Telmisartan amide linker]
[3]
  Kd: 74.2 nM

## telmisartan-ester-PEG4 azide [Telmisartan ester linker]
[3]
  Kd: 28.5 nM

— patent US20230233696A1, “TRIANTENNARY N-ACETYLGALACTOSAMINE MODIFIED HYDROXYL POLYAMIDOAMINE DENDRIMERS AND METHODS OF USE THEREOF” (Ashvattha Therapeutics, Inc., priority 2019, published 2023)
